For one experiment, the target named is sigma-2 receptor (S2R). The note with it: read-out: KI S2R, cited from earlier work.
Another experiment deals with S1R knockout mice. The note with it: ref Fontanilla et al., 2009; cited from earlier work.
A further experiment has as its target sigma-1 receptor (S1R). The note with it: read-out: KI S1R, cited from earlier work.
Another experiment deals with S1R + S2R. The experiment can be described thus: Saturation binding of [3H]-DTG in rat liver. The note with it: RL membranes.
Where [1] appears, read: ref 2 Fontanilla D et al. (2009) Science 323(5916): 934-937.
Where [2] appears, read: ref 1 Matsumoto RR et al. (1995) EJP 280: 301-310.
[3] abbreviates: ref 8 Husbands SM et al (1997) J Med Chem 40:4340-4346.

As usually defined, the Ki is the equilibrium dissociation constant of an inhibitor or competing ligand from its target.

Where two headings read alike, the source gives them in different places.

With `O=C(OCCN1CCOCC1)C1(c2ccccc2)CCCCC1` [PRE-084], the Ki on sigma-2 receptor (S2R) (ref 6 Maurice T. et al. (1999) Br J Pharmacol 127(2): 335-342) is 13.1 µM.

On to `CN(C)CCc1c[nH]c2ccccc12` [Dimethyltryptamine, N,N-dimethyltryptamine], for which, in the experiment on S1R knockout mice, the “response in a behavioral assay measuring motor coordination” value is “failed to respond”. For the same compound, the figures for the Ki at sigma-2 receptor (S2R) (setting [1]) and at sigma-1 receptor (S1R) (setting [1]) were 21.7 µM and 14.7 µM, respectively.

With `CN(C)CCN(C)CCc1ccc(Cl)c(Cl)c1` [BD1047], the Ki is 0.047 µM on sigma-2 receptor (S2R) (setting [2]) and 0.00093 µM at sigma-1 receptor (S1R) (setting [2]).

As to `Cc1ccccc1NC(=N)Nc1ccccc1C` [[^3H]-DTG, [^3H]-1,3-di(2-tolyl)guanidine], the “S1R + S2R Binding, Specific Binding” value in the experiment with S1R + S2R (measured [3H]-DTG concentration 0.25 nM) was 0.44 pmol/mg; with S1R + S2R (measured [3H]-DTG concentration 0.8 nM), 0.94 pmol/mg; in the experiment on S1R + S2R (measured [3H]-DTG concentration 2.7 nM), 2.21 pmol/mg; with S1R + S2R (measured [3H]-DTG concentration 9 nM), 6.52 pmol/mg; with S1R + S2R (measured [3H]-DTG concentration 27 nM), 11.36 pmol/mg; with S1R + S2R (measured [3H]-DTG concentration 92 nM), 18.55 pmol/mg. Moreover, the “S1R + S2R Binding, Specific Binding” value with S1R + S2R (measured [3H]-DTG concentration 310 nM) is 20.14 pmol/mg.

`CN1CCN(CCc2ccc(Cl)c(Cl)c2)CC1` [BD1063]: the figures for the Ki at sigma-2 receptor (S2R) (setting [2]) and at sigma-1 receptor (S1R) (setting [2]) were 0.449 µM and 0.0092 µM, respectively.

Turning to `C[C@@H]1CN(CCCn2c3ccccc3c3ccccc32)C[C@H](C)N1` [Rimcazole], the inhibitory constant (Ki) at sigma-2 receptor (S2R) (setting [3]) was 0.386 µM; on sigma-1 receptor (S1R) (setting [3]), […].
